Columns and labels:
[1] = molecular target: Serine/threonine-protein kinase 38 (Homo sapiens) (UniProt Q15208); conditions: Compound concentration 1000.0 nM
[2] = molecular target: Protein kinase C eta type (Homo sapiens) (UniProt P24723); conditions: Compound concentration 1000.0 nM
[3] = molecular target: 5-hydroxytryptamine receptor 2C (Homo sapiens) (UniProt P28335); conditions: Compound concentration 10.0 uM
[4] = molecular target: 5'-AMP-activated protein kinase catalytic subunit alpha-1 (Homo sapiens, UniProt Q13131); conditions: Compound concentration 1000.0 nM
5'-AMP-activated protein kinase catalytic subunit alpha-1, sequence (Q13131 whole entry, looked up): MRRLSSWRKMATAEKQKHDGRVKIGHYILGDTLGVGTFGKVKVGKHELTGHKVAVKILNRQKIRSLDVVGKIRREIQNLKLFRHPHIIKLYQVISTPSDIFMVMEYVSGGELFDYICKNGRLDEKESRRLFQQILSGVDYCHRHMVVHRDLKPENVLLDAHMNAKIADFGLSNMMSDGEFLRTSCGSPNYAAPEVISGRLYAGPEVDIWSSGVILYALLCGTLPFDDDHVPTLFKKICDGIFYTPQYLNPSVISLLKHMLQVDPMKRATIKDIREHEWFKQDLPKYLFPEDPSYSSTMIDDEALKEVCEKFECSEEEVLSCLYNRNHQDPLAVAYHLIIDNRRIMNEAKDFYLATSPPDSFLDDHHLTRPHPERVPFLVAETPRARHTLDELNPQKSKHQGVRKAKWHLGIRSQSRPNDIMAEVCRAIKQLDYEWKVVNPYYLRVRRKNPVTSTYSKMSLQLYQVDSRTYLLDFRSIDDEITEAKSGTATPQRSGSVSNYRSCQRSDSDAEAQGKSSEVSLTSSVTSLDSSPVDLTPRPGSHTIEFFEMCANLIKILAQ

[5] = molecular target: Macrophage colony-stimulating factor 1 receptor (Homo sapiens) (UniProt P07333); conditions: Compound concentration 1000.0 nM
Macrophage colony-stimulating factor 1 receptor (Homo sapiens), sequence (P07333 whole entry): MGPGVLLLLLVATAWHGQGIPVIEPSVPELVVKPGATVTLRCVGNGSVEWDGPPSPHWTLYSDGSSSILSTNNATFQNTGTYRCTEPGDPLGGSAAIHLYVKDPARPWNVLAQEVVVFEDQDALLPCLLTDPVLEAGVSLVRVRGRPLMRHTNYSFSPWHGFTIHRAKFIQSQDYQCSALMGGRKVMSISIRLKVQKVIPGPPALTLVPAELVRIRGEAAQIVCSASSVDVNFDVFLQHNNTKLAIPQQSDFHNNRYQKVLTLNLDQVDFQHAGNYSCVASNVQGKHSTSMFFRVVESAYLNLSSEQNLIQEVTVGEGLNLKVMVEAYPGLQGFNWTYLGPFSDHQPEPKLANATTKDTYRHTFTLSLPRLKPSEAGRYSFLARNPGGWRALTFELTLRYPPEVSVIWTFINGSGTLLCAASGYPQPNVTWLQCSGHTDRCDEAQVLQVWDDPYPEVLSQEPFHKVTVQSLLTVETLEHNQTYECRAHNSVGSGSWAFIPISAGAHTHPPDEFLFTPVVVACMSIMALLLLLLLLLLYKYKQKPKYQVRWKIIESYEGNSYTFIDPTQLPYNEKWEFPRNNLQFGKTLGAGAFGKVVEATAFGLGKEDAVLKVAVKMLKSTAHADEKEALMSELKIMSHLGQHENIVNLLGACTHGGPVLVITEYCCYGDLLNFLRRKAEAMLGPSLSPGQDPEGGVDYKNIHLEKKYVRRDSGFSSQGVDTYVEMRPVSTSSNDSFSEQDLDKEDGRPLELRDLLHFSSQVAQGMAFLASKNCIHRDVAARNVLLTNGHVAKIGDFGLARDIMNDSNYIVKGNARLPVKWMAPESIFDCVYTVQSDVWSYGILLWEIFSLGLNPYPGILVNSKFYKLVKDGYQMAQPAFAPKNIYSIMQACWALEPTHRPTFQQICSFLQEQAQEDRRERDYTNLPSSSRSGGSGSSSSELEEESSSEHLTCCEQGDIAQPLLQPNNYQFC

[6] = molecular target: Death-associated protein kinase 2 (Homo sapiens) (UniProt Q9UIK4); conditions: Compound concentration 1000.0 nM
Death-associated protein kinase 2 (Homo sapiens), sequence (Q9UIK4 whole entry, looked up): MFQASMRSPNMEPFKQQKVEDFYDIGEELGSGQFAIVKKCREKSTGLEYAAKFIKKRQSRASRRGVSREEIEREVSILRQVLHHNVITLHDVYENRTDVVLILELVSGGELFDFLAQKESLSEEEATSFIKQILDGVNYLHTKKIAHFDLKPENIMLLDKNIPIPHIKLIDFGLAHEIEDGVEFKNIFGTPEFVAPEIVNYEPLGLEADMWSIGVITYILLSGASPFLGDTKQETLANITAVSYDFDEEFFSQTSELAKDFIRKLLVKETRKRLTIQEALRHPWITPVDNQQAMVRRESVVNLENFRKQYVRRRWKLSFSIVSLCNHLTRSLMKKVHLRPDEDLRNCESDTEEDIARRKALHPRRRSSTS

[7] = molecular target: Mitogen-activated protein kinase 11 (Homo sapiens) (UniProt Q15759); conditions: Compound concentration 1000.0 nM
Mitogen-activated protein kinase 11 (Homo sapiens), sequence (Q15759 whole entry): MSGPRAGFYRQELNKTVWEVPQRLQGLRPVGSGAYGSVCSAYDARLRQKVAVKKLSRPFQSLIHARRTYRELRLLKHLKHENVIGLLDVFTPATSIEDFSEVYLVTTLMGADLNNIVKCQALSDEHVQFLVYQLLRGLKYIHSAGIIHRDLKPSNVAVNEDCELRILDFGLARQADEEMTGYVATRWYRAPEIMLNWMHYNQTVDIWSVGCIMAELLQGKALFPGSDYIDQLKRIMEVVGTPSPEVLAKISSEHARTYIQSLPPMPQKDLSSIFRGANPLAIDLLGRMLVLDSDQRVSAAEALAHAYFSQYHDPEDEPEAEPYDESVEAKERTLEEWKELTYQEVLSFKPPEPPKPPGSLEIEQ

[8] = system: Tyrosine-protein kinase ABL1 (Homo sapiens), P00519 [T315I]; conditions: Compound concentration 1000.0 nM
[9] = molecular target: Phosphatidylinositol 3-kinase catalytic subunit type 3 (Homo sapiens) (UniProt Q8NEB9); conditions: Compound concentration 1000.0 nM
Phosphatidylinositol 3-kinase catalytic subunit type 3 (Homo sapiens), sequence (Q8NEB9 whole entry): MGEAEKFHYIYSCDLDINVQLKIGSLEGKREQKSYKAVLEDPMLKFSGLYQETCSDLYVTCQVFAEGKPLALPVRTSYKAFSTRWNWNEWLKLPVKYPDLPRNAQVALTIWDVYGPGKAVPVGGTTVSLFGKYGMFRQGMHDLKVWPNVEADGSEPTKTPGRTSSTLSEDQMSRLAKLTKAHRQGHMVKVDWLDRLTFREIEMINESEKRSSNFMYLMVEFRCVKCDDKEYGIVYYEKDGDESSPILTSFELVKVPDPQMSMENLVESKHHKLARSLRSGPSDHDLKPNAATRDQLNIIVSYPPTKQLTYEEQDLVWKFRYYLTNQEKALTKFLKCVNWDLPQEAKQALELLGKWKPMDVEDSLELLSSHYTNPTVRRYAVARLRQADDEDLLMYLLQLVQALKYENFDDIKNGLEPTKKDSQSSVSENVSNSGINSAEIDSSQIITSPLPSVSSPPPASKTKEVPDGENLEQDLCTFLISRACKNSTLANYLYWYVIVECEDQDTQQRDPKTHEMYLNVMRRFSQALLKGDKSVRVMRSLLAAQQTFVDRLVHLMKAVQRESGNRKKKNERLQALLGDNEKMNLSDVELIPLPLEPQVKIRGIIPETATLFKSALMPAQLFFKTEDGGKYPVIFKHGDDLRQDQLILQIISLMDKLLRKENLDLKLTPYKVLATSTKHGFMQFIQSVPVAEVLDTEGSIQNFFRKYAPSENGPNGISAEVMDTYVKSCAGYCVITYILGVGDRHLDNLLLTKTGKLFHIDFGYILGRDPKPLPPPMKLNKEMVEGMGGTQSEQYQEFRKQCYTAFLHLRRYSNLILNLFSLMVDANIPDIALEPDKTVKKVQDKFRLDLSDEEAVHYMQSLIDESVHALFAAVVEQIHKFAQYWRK

[10] = system: Tyrosine-protein kinase ABL1 (Homo sapiens), P00519 [F317L]; conditions: Compound concentration 1000.0 nM
[11] = molecular target: T1, Serine/threonine-protein kinase ULK1 (Homo sapiens) (UniProt O75385); conditions: Compound concentration 1000.0 nM
T1 sequence (whole entry): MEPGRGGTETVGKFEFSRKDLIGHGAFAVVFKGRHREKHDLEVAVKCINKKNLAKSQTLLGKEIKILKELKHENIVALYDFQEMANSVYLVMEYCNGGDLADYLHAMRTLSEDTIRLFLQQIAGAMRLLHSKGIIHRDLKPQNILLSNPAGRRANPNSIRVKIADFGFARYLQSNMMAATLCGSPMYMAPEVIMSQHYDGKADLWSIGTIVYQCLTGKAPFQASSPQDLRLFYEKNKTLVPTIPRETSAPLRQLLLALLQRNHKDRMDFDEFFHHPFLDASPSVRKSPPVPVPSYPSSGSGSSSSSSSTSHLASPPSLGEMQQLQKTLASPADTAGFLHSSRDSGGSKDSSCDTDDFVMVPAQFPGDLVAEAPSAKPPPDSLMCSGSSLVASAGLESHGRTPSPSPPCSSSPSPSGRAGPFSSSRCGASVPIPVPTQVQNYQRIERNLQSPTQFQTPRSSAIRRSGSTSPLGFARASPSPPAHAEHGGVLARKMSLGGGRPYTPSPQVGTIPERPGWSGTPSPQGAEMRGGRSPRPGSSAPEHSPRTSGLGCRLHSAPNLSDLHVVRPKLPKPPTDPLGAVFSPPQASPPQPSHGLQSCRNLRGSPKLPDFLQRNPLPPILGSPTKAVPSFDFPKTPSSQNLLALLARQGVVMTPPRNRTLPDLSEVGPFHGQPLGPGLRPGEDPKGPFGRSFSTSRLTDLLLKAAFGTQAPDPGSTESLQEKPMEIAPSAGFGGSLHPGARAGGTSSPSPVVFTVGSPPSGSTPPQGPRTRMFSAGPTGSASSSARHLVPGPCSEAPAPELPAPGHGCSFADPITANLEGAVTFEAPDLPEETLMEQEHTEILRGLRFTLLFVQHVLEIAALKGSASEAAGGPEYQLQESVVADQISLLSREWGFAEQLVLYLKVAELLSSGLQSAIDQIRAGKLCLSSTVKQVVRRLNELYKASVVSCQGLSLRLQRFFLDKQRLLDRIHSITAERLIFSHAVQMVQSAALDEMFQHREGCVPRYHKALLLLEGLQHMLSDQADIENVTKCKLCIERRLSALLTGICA

[12] = molecular target: T2, Inhibitor of nuclear factor kappa-B kinase subunit alpha (Homo sapiens) (UniProt O15111); conditions: Compound concentration 1000.0 nM
T2 sequence (whole entry): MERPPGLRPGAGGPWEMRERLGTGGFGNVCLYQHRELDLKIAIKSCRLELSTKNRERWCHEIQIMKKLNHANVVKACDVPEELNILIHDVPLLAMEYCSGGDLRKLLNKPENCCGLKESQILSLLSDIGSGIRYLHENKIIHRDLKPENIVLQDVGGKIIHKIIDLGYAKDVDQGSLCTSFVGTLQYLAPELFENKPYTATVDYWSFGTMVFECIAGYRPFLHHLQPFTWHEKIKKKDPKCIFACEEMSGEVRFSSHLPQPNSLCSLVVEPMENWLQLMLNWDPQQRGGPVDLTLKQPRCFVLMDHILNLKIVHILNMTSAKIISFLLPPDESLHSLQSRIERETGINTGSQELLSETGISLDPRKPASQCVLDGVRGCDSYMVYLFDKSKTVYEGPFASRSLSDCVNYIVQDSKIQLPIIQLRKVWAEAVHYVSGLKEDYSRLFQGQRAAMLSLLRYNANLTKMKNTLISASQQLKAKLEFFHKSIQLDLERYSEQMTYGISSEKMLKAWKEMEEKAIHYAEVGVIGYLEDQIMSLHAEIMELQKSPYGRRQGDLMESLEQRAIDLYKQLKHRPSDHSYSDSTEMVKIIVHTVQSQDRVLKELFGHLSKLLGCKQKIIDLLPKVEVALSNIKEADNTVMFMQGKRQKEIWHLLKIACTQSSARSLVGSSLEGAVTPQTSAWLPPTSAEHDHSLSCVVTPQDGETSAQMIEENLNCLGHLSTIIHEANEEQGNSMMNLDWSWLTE

Serine/threonine-protein kinase 38 (Homo sapiens), sequence (Q15208 2-465 limits assumed): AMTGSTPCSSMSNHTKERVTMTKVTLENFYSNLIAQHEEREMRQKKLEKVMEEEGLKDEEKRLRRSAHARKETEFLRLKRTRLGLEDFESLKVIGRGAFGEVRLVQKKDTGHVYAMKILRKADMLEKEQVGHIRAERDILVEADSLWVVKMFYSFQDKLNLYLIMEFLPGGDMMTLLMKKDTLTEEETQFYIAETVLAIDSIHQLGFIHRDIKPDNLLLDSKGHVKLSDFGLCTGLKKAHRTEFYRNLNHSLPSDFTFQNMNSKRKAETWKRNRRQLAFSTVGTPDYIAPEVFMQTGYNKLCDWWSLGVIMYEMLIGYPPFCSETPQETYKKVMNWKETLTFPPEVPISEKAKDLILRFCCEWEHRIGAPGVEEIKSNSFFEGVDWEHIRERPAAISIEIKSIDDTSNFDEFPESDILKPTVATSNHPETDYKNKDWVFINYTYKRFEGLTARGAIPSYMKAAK
5-hydroxytryptamine receptor 2C (Homo sapiens), sequence (P28335 whole entry): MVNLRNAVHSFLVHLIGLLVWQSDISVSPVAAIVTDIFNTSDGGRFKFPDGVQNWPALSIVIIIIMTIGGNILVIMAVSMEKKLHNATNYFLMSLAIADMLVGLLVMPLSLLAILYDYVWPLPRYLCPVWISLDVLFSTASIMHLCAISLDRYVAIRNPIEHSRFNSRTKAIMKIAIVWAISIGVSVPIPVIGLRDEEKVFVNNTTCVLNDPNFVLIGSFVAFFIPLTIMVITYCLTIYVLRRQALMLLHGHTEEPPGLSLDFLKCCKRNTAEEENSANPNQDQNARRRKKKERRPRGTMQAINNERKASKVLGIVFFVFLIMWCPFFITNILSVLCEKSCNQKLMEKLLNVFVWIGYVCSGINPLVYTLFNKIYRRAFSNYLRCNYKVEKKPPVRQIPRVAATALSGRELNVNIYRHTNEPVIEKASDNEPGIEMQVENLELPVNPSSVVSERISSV
Protein kinase C eta type (Homo sapiens), sequence (P24723 whole entry): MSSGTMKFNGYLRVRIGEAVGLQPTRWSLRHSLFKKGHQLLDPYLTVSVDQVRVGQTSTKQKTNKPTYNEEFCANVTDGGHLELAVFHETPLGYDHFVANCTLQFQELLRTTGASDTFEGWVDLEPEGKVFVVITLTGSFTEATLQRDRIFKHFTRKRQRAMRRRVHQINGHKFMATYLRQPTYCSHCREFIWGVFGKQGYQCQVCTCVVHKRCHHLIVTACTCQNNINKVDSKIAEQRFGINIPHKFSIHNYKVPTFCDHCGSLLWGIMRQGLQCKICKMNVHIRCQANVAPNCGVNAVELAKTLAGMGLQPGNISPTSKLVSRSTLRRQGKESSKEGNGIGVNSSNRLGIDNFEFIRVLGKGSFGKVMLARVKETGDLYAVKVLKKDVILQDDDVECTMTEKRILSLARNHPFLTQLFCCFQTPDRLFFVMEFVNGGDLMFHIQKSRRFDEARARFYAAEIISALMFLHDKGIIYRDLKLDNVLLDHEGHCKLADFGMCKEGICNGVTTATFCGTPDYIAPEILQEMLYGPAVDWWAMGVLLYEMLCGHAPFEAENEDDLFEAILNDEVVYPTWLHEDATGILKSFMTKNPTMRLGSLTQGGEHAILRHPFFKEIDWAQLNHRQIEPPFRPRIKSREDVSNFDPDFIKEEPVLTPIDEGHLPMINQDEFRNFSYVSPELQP

CCc1ccccc1C(=O)Nc1n[nH]c2c(C)c(F)c(C3C(C#N)=C(C)N(C)C(C)=C3C#N)cc12 [BAY-3827]
residual activity [1]: 100%
residual activity [2]: 32%
inhibition [3]: 20%
residual activity [4]: 7.5%
residual activity [5]: 100%
residual activity [6]: 63%
residual activity [7]: 91%
residual activity [8]: 72%
residual activity [9]: 100%
residual activity [10]: 100%
residual activity [11]: 29%
residual activity [12]: 87%

CC1=C(C#N)C(c2ccc3c(c2)c(NC(=O)c2ccccc2C)nn3C)C(C#N)=C(C)N1 [BAY-974]
residual activity [1]: 96%
residual activity [2]: 94%
inhibition [3]: 22.5%
residual activity [4]: 77%
residual activity [5]: 100%
residual activity [6]: 98%
residual activity [7]: 100%
residual activity [8]: 97%
residual activity [9]: 87%
residual activity [10]: 97%
residual activity [11]: 86%
residual activity [12]: 77%
